“Also recorded” adds a separate entry of the source. Like-named read-outs stand apart in the source and are kept apart here.

Series [1] deals with Salmonella typhimurium strain TA98. The settings on record: for concentration dependence of mutagenicity (revertants/plate): 0.1-100 μM.
Series [2] concerns Salmonella typhimurium strain TA100. The settings on record: cited from earlier work.
Series [3] shares this test system. The settings on record: 10 and 100 μM (Figure 1).
The subject of a further series is lung adenoma. The settings on record: cited from earlier work.
In series [4] the test system is Salmonella typhimurium strain TA98. The settings on record: cited from earlier work.
In series [5] the test system is primary normal human lung cells. The settings on record: 0.1 to 10 μM; cited from earlier work.
Where [6] appears, read: 10 μM, 50 pmol 1A1 Supersomes, presence of NADPH.
Where [7] appears, read: 10 μM, 50 pmol recombinant 2A13, presence of NADPH.
Where [8] appears, read: 0.5 mg human lung microsomes, presence of NADPH.
Setting [9] is: 2 mg rat liver S9, presence of NADPH.
[10] abbreviates: 0.5 mg human lung microsomes, presence of NADPH, equal concentrations.

On to `Nn1nnc2ccccc21` [ABT, 1-aminobenzotriazole, reference compound], for which, in series [1] (0.5 mM ABT alone, 0.5 mg human lung microsomes), the “mutagenicity of inhibitor alone” value is given as “did not prove to be mutagenic”. In addition, the “effect on 3MI-mediated mutagenesis” value in series [1] (0.5 mM ABT with 100 μM 3MI, 0.5 mg human lung microsomes, presence of NADPH) is listed as “completely inhibited the mutagenesis”. For the same compound, in series [1] (0.5 mM ABT with 100 μM B(a)P, 0.5 mg human lung microsomes, presence of NADPH), the “effect on B(a)P-mediated mutagenesis” value is “completely inhibited the mutagenesis”. The “effect on NNK-mediated mutagenesis” value in series [1] (0.5 mM ABT with 100 μM NNK, 0.5 mg human lung microsomes, presence of NADPH) is given as “completely inhibited the mutagenesis”.

As to `CN(CCCC(=O)c1cccnc1)N=O` [NNK, 4-(methylnitrosamino)-1-(3-pyridyl)-1-butanone, reference compound], the “mutagenicity (revertants/plate)” value is “did not result in an increased number of revertants” in series [1] (setting [6]), “statistically significant increases in the number of revertants per plate” in series [1] (setting [7]), “failed to increase mutagenesis at any concentration” in series [3] (setting [8]) and “failed to increase mutagenesis at any concentration” in series [3] (setting [9]). Moreover, the “concentration dependence of mutagenicity (revertants/plate)” value in series [1] (setting [8]) is “mutagenicity increased in a concentration-dependent manner up through the 100 μM concentration”. In series [2], the “base pair substitution mutations” value is “does not cause base pair substitution mutations”.

For `COc1c2occc2cc2ccc(=O)oc12` [8-MOP, 8-methoxypsoralen], the chemopreventive effect entry in the series with lung adenoma is on record as “chemopreventive effect”.

For `Cc1c[nH]c2ccccc12` [3MI, 3-methylindole], the “mutagenicity (revertants/plate)” value in series [1] (setting [6]) is “statistically significant increases in mutagenicity”; in series [1] (setting [7]), “statistically significant increases in the number of revertants per plate; also recorded: highest levels of mutagenicity”; in series [1] (2 mg human liver S9, presence of NADPH), “Neither incubation of 3MI with Salmonella typhimurium strain TA98 and 2 mg human liver S9, or 2 mg rat liver S9 was mutagenic; also recorded: failed to produce 3MI-mediated mutagenesis”; in series [1] (setting [9]), “Neither incubation of 3MI with Salmonella typhimurium strain TA98 and 2 mg human liver S9, or 2 mg rat liver S9 was mutagenic; also recorded: failed to produce 3MI-mediated mutagenesis”; in series [3] (setting [8]) it was “failed to increase mutagenesis at any concentration”; in series [3] (setting [9]), “failed to increase mutagenesis at any concentration”. The “mutagenicity (number of mutants)” value in series [1] (10 μM, 50 pmol purified 2F3, presence of NADPH) was “significant increase in the number of mutants”. For the same compound, the “cytotoxicity to bacteria (density of background lawn)” value in series [1] (100 μM, 0.5 mg human lung microsomes) is “cytotoxic”. Moreover, in series [1] (setting [8]), the “concentration dependence of mutagenicity (revertants/plate)” value is recorded as “increasing mutagenicity up through the 10 μM concentration, but lower revertants/plate with the highest concentration (100 μM)”. In addition, the “mutagenicity compared to BaP” value in series [1] (setting [10]) is “more mutagenic than BaP was at the 1.0 μM (p=0.006) and 10 μM (p=0.005) concentrations, although not at the 0.1 μM (p=0.1) or 100 μM (p=0.9) concentrations”. Also, the “mutagenicity compared to NNK” value in series [1] (setting [10]) was “significantly more mutagenic than NNK was at the 0.1 μM (p=0.05), 1.0 μM (p=0.002), and 10 μM (p=0.007) concentrations, although not at the 100 μM (p=0.8) concentration”. In addition, the mutagenicity entry in series [2] (rat liver S9) is on record as “not mutagenic”; in series [4] (purified CYP2F3), “mutagenic”; in series [4] (rat liver S9 fractions) it was “not mutagenic”. Moreover, in series [5], the “induction of markers of carcinogenesis” value was “induce markers of carcinogenesis, including DNA damage and p53 nuclear localization”.

Source of the values: publication PMC2981624 (Chemical research in toxicology, 2010).
